A word on the IC50: it is the concentration that gives 50% inhibition. What is called melting point is the temperature of the solid-liquid transition.

SMILES strings stand for the structures. A value given as a limit tells only on which side of the number the result lay.

The source of these data is publication PMC4389562, “Antigiardial activity of novel triazolyl-quinolone-based chalcone derivatives: when oxygen makes the difference” (Frontiers in Microbiology, 2015).

The test system of one data set is Giardia intestinalis trophozoites. Nature of the data set: Drug susceptibility of Giardia trophozoites, ATP level by luminescence (BacTiter-Glo), 48 h incubation, anaerobic or microaerobic. It is filed as cell-based, Giardia intestinalis strain WB clone C6. Particulars: Giardia duodenalis, 48 h, anaerobic conditions (Anaerocult A), 48 h, 37 °C, ATP level; read-out: Giardia (anaerobiosis) IC50. How it is done: Trophozoites of G. intestinalis strain WB clone C6 (ATCC No. 50803TM) were cultured axenically at 37^∘C in 25-cm^2 flasks containing Diamond's TYI-S-33 medium supplemented with 10% bovine calf serum, 1 mg/mL bovine bile, 0.1 g/L streptomycin and 100 U/mL penicillin. Typically, 50 ml medium was inoculated with 25 × 10^6 cells and after 2 days cells were harvested by chilling the flasks on ice for 30 min for drug susceptibility assays. […] The assays were performed following the procedure described in [Bahadur et al. (2014)], using sterile 96-well white clear-bottom plates. […] Each drug concentration was tested in at least six replicates. MTZ was used as an internal positive control in the assay. The microtiter plates were then incubated at 37^∘C under anaerobic or microaerobic conditions, ensured by the Anaerocult® A or the Anaerocult® […] (Merck), respectively. […] Following 48 h incubation with the compound to be tested, 100 μL of the BacTiter-Glo^TM Microbial Cell Viability Assay System reagent (Promega) was added to each well for one-step lysis and ATP level detection. Plates were then incubated at room temperature for 15 min and ATP levels finally detected by luminescence on a plate reader (Wallac Victor3 1420 Multilabel Counter, PerkinElmer). Luminometric data were calibrated using ATP standard curves and normalized to the ATP level measured in control DMSO-treated cells (taken as 100%). The measured ATP level percentage was plotted as a function of the compound concentration and the half-maximal inhibitory concentration (IC50) was obtained by fitting the resulting titration profile to the Hill equation ([Goutelle et al., 2008]). The selectivity index (SI) of the compounds was then calculated as the ratio between the IC50 value measured on human cells over the value determined on Giardia trophozoites (SI = IC50,Caco-2/IC50,Giardia). The antigiardial activity of the novel compounds 23-67 was tested under both anaerobic and microaerobic conditions. According to ([Dunn et al., 2010]; [Bahadur et al., 2014]), susceptibility of Giardia trophozoites to increasing concentrations of each compound was assessed based on ATP level determination by luminescence. Dose-response curves for each compound were obtained after 48 h-incubation and compared to the data collected under identical conditions with MTZ, the drug of choice for treatment of giardiasis. […] Typical dose-response curves are shown in Figure 2, whereas the IC50 values measured for the synthetic compounds and MTZ under anaerobic and microaerobic conditions are reported in Table 1. […] Under anaerobic conditions, 18 out of the 45 synthetic compounds were as effective as MTZ or more under identical conditions (see Table 1).
For the molecule `COc1ccc(-n2cc(Cn3c(=O)c(/C=C/C(=O)c4ccc(Cl)cc4)cc4ccccc43)nn2)cc1` [Compound 26], the IC50 turned out to be 5 µM.
Same read-out and setting: as for `COc1cccc(C(=O)/C=C/c2cc3ccccc3n(Cc3cn(-c4ccc(C)cc4)nn3)c2=O)c1` [Compound 39], the figure is 2.9 µM; as for `O=C(/C=C/c1cc2ccccc2n(Cc2cn(-c3ccccc3)nn2)c1=O)c1ccc(F)cc1` [Compound 61], 5.3 µM.
As for `Cc1ncc([N+](=O)[O-])n1CCO` [MTZ, metronidazole, reference compound], the IC50 was 3.4 µM.
Take `COc1cccc(C(=O)/C=C/c2cc3ccccc3n(Cc3cn(-c4ccc(Cl)cc4)nn3)c2=O)c1` [Compound 57]: the IC50 is 6.6 µM.
Same read-out and setting: as for `COc1ccc(-n2cc(Cn3c(=O)c(/C=C/C(=O)c4ccccc4OC)cc4ccccc43)nn2)cc1` [Compound 29], the figure is 2.2 µM; as for `O=C(/C=C/c1cc2ccccc2n(Cc2cn(-c3ccc(F)cc3)nn2)c1=O)c1ccc(Br)cc1` [Compound 45], 1.1 µM.

The data set is the same for the next values; noted with them: Giardia duodenalis, 48 h, microaerobic conditions (~5% O2, Anaerocult C), 48 h, 37 °C, ATP level; read-out: Giardia (microaerobiosis) IC50.
Turning to `COc1ccc(-n2cc(Cn3c(=O)c(/C=C/C(=O)c4ccc(Cl)cc4)cc4ccccc43)nn2)cc1` [Compound 26], the IC50 stood at 2.6 µM.
On to `COc1cccc(C(=O)/C=C/c2cc3ccccc3n(Cc3cn(-c4ccc(C)cc4)nn3)c2=O)c1` [Compound 39], for which the IC50 was 1.3 µM.
Turning to `O=C(/C=C/c1cc2ccccc2n(Cc2cn(-c3ccccc3)nn2)c1=O)c1ccc(F)cc1` [Compound 61], the IC50 amounted to 0.8 µM.
On to `Cc1ncc([N+](=O)[O-])n1CCO` [MTZ, metronidazole, reference compound], for which the half-maximal inhibitory concentration (IC50) was at least 25 µM.
Same read-out and setting: as for `COc1cccc(C(=O)/C=C/c2cc3ccccc3n(Cc3cn(-c4ccc(Cl)cc4)nn3)c2=O)c1` [Compound 57], the figure is 1.1 µM; as for `COc1ccc(-n2cc(Cn3c(=O)c(/C=C/C(=O)c4ccccc4OC)cc4ccccc43)nn2)cc1` [Compound 29], 0.4 µM.
For `O=C(/C=C/c1cc2ccccc2n(Cc2cn(-c3ccc(F)cc3)nn2)c1=O)c1ccc(Br)cc1` [Compound 45], the IC50 amounted to 0.5 µM.

Staying with this data set, now noted: SI = IC50,Caco-2/IC50,Giardia; Giardia under anaerobiosis.
Regarding `COc1ccc(C(=O)/C=C/c2cc3ccccc3n(Cc3cn(-c4ccc(F)cc4)nn3)c2=O)cc1` [Compound 49], the “Selectivity (IC50,Caco/IC50,Giardia) Anaerobiosis” value is listed as at least 3.

Staying with this data set, now noted: SI = IC50,Caco-2/IC50,Giardia; Giardia under microaerobiosis.
Regarding `COc1ccc(C(=O)/C=C/c2cc3ccccc3n(Cc3cn(-c4ccc(F)cc4)nn3)c2=O)cc1` [Compound 49], the “Selectivity (IC50,Caco/IC50,Giardia) Microaerobiosis” value is reported as at least 38.

Still in this data set, the particulars now being: anaerobic conditions (Anaerocult A), 48 h, 37 °C, ATP level; read-out: Giardia (anaerobiosis) IC50.
For the molecule `COc1ccc(C(=O)/C=C/c2cc3ccccc3n(Cc3cn(-c4ccc(F)cc4)nn3)c2=O)cc1` [Compound 49], the IC50 came out at 13 µM.

The data set is the same for the next values; noted with them: anaerobic conditions, relative to MTZ.
Turning to `O=C(/C=C/c1cc2ccccc2n(Cc2cn(-c3ccc(F)cc3)nn2)c1=O)c1ccc(Br)cc1` [Compound 45], the “fold more efficient than MTZ against Giardia” value was “three to fourfold”.

The data set is the same for the next values; noted with them: human (Caco-2 cells) versus Giardia intestinalis, Caco-2, SI = IC50,Caco-2/IC50,Giardia; Giardia under anaerobiosis; read-out: Selectivity (IC50,Caco/IC50,Giardia) Anaerobiosis.
Take `COc1ccc(-n2cc(Cn3c(=O)c(/C=C/C(=O)c4ccc(Cl)cc4)cc4ccccc43)nn2)cc1` [Compound 26]: the selectivity ratio at 48 h is at least 4.
On to `O=C(/C=C/c1cc2ccccc2n(Cc2cn(-c3ccccc3)nn2)c1=O)c1ccc(F)cc1` [Compound 61], for which the selectivity ratio at 48 h was 3.4.
The same measure, in the same setting: as for `Cc1ncc([N+](=O)[O-])n1CCO` [MTZ, metronidazole, reference compound], the figure is at least 29; as for `COc1cccc(C(=O)/C=C/c2cc3ccccc3n(Cc3cn(-c4ccc(Cl)cc4)nn3)c2=O)c1` [Compound 57], 2.2.
Same read-out and setting: as for `COc1ccc(-n2cc(Cn3c(=O)c(/C=C/C(=O)c4ccccc4OC)cc4ccccc43)nn2)cc1` [Compound 29], the figure is above 15; as for `O=C(/C=C/c1cc2ccccc2n(Cc2cn(-c3ccc(F)cc3)nn2)c1=O)c1ccc(Br)cc1` [Compound 45], 15.2.

The same data set, now with this note: human (Caco-2 cells) versus Giardia intestinalis, Caco-2, SI = IC50,Caco-2/IC50,Giardia; Giardia under microaerobiosis; read-out: Selectivity (IC50,Caco/IC50,Giardia) Microaerobiosis.
Consider `COc1ccc(-n2cc(Cn3c(=O)c(/C=C/C(=O)c4ccc(Cl)cc4)cc4ccccc43)nn2)cc1` [Compound 26], for which the selectivity ratio at 48 h was at least 7.
As for `O=C(/C=C/c1cc2ccccc2n(Cc2cn(-c3ccccc3)nn2)c1=O)c1ccc(F)cc1` [Compound 61], the selectivity ratio at 48 h was 22.8.
Still for that read-out and setting: as for `COc1cccc(C(=O)/C=C/c2cc3ccccc3n(Cc3cn(-c4ccc(Cl)cc4)nn3)c2=O)c1` [Compound 57], the figure is 11.3; as for `O=C(/C=C/c1cc2ccccc2n(Cc2cn(-c3ccc(F)cc3)nn2)c1=O)c1ccc(Br)cc1` [Compound 45], 33.4.

The data set is the same for the next values; noted with them: microaerobic conditions (~5% O2, Anaerocult C), 48 h, 37 °C, ATP level; read-out: Giardia (microaerobiosis) IC50.
Turning to `COc1ccc(C(=O)/C=C/c2cc3ccccc3n(Cc3cn(-c4ccc(F)cc4)nn3)c2=O)cc1` [Compound 49], the IC50 worked out at 1.3 µM.

System in another data set: not given
Experiment: not given
Details: not given
`COc1ccc(-n2cc(Cn3c(=O)c(/C=C/C(=O)c4ccc(Cl)cc4)cc4ccccc43)nn2)cc1` [Compound 26]: the melting point fell in the range of 230 to 232 °C.
`COc1cccc(C(=O)/C=C/c2cc3ccccc3n(Cc3cn(-c4ccc(C)cc4)nn3)c2=O)c1` [Compound 39] yielded a melting point of 192 to 194 °C.
In the case of `O=C(/C=C/c1cc2ccccc2n(Cc2cn(-c3ccccc3)nn2)c1=O)c1ccc(F)cc1` [Compound 61], the melting point fell in the range of 202 to 204 °C.
Consider `COc1cccc(C(=O)/C=C/c2cc3ccccc3n(Cc3cn(-c4ccc(Cl)cc4)nn3)c2=O)c1` [Compound 57], for which the melting point fell in the range of 215 to 217 °C.
Turning to `COc1ccc(-n2cc(Cn3c(=O)c(/C=C/C(=O)c4ccccc4OC)cc4ccccc43)nn2)cc1` [Compound 29], the melting point was in the range of 210 to 212 °C.
With `O=C(/C=C/c1cc2ccccc2n(Cc2cn(-c3ccc(F)cc3)nn2)c1=O)c1ccc(Br)cc1` [Compound 45], the melting point was 238 to 240 °C.

In another data set the test system is Caco-2 cells. Nature of the data set: Counter-screen on Caco-2 cells, ATP level by luminescence (ATPlite), 48 h incubation. In kind it is cell-based, human. As to conditions: Homo sapiens, Caco-2, 48 h, atmospheric O2, 5% CO2, 48 h, 37 °C. How it is done:
Trophozoites of G. intestinalis strain WB clone C6 (ATCC No. 50803TM) were cultured axenically at 37^∘C in 25-cm^2 flasks containing Diamond’s TYI-S-33 medium supplemented with 10% bovine calf serum, 1 mg/mL bovine bile, 0.1 g/L streptomycin and 100 U/mL penicillin. […] Human epithelial colorectal adenocarcinoma (Caco-2) cells were grown in 25-cm^2 flasks in EMEM supplemented with 1% (v/v) non-essential amino acids, 2 mM glutamine, 5% (v/v) fetal bovine serum, 0.1 g/L streptomycin, and 100 U/mL penicillin.
Cells were detached with 0.5% trypsin-EDTA and seeded in sterile 96-well white clear-bottom plates at the same density of Giardia trophozoites and at increasing concentration of the compound to be tested, as described above. The assays were carried out exactly as reported for the Giardia trophozoites, except that the plates were incubated (still at 37^∘C) at atmospheric O2 level, 5% CO2, and 95% humidity. Each drug concentration was tested in at least seven replicates. MTZ was used as an internal […] control in the assay. Following 48 h incubation with each compound, according to the manufacturer instructions, 100 μL of the ATPlite^TM luminescence assay system (Perkin Elmer) was added to each well for one-step lysis and ATP level detection by luminescence.
Luminometric data were calibrated using ATP standard curves and normalized to the ATP level measured in control DMSO-treated cells (taken as 100%). The measured ATP level percentage was plotted as a function of the compound concentration and the half-maximal inhibitory concentration (IC50) was obtained by fitting the resulting titration profile to the Hill equation ([Goutelle et al., 2008]). The selectivity index (SI) of the compounds was then calculated as the ratio between the IC50 value measured on human cells over the value determined on Giardia trophozoites (SI = IC50,Caco-2/IC50,Giardia).
Selectivity of the newly synthesized compounds toward Giardia was assessed by running a counter-screen on human epithelial Caco-2 cells. […] This allowed us to calculate the compounds SI, defined as the ratio between the IC50 value measured on human cells over the value determined on Giardia trophozoites.
In general terms: A counterscreen serves to expose hits that act by an unwanted route or on another target.
As for `COc1ccc(-n2cc(Cn3c(=O)c(/C=C/C(=O)c4ccc(Cl)cc4)cc4ccccc43)nn2)cc1` [Compound 26], the IC50 was at least 20 µM.
`O=C(/C=C/c1cc2ccccc2n(Cc2cn(-c3ccccc3)nn2)c1=O)c1ccc(F)cc1` [Compound 61] registered an IC50 of 18.2 µM.
As to `Cc1ncc([N+](=O)[O-])n1CCO` [MTZ, metronidazole, reference compound], the IC50 was above 100 µM.
Same read-out and setting: as for `COc1cccc(C(=O)/C=C/c2cc3ccccc3n(Cc3cn(-c4ccc(Cl)cc4)nn3)c2=O)c1` [Compound 57], the figure is 14.7 µM; as for `COc1ccc(-n2cc(Cn3c(=O)c(/C=C/C(=O)c4ccccc4OC)cc4ccccc43)nn2)cc1` [Compound 29], at least 40 µM.
Consider `O=C(/C=C/c1cc2ccccc2n(Cc2cn(-c3ccc(F)cc3)nn2)c1=O)c1ccc(Br)cc1` [Compound 45], for which half-maximal inhibition (IC50) was put at 16.7 µM.

Staying with this data set, now noted: atmospheric O2, 5% CO2, 48 h, 37 °C.
With `COc1ccc(C(=O)/C=C/c2cc3ccccc3n(Cc3cn(-c4ccc(F)cc4)nn3)c2=O)cc1` [Compound 49], the IC50 was at least 50 µM.
